The test system of assay [1] is PEG-3. As to the kind of experiment: inhibition of PEG-3 promoter-driven reporter – cell-based, HeLa, luciferase, CREF/GAPDH counter-screen panel, dose response (AID 624167). As to conditions: HeLa PEG-Prom luciferase reporter, overnight, CREF/GAPDH counter-screens. (A counterscreen serves to expose hits that act by an unwanted route or on another target.)
For assay [2], the target named is PEG-3 (UniProt Q6IN02). Described as above. To be noted: HeLa PEG-Prom luciferase reporter, overnight, CREF/GAPDH counter-screens, mean of runs.
The mark [3] stands for this setting: run 1, dose range 1, individual replicate IC50 per panel.
[4] abbreviates: run 2, dose range 1, individual replicate IC50 per panel.

The source made the active and inactive calls.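 How the source made its calls: active means mean IC50 for reducing PEG3 promoter reporter signal at or below a set limit, with IC50 above the limit in both counter screens; inactive means the rest, including counter screen hits.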

PEG-3 (UniProt Q6IN02), sequence (Q6IN02 whole entry, looked up): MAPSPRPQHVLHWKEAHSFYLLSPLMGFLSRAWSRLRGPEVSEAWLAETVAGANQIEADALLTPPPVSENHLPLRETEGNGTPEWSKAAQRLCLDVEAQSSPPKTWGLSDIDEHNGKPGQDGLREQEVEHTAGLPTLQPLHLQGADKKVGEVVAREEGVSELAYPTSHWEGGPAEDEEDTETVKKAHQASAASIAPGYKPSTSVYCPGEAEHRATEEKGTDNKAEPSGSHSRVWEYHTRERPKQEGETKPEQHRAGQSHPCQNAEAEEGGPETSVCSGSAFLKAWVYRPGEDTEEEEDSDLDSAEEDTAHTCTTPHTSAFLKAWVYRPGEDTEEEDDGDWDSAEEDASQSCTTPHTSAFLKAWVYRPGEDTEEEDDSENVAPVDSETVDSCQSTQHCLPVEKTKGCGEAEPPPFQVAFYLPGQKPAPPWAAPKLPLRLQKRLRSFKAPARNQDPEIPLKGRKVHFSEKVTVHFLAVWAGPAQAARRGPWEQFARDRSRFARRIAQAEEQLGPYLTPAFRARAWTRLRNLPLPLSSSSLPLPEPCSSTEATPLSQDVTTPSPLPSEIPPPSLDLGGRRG

With `CCc1ccc2c(c1)Sc1ccccc1CC2N1CCN(C)CC1` (centres undefined), the IC50 in the assay on PEG-3 [1] (setting [3]) was 19.7 µM; with PEG-3 [1] (setting [4]), 38 µM. The IC50 result at PEG-3 [2] was “inactive”.
Taken in the same sequence, the figures for `c1ccc(CN=C(NCc2ccccc2)NCc2ccccc2)cc1` were 23.4 µM, 41.9 µM and “inactive”.
Regarding `O=C(NC(c1ccc(F)cc1)c1ccc2ccccc2n1)C1CCN(Cc2cccc(C(F)(F)F)c2)CC1` (centres undefined), the IC50 was 16.2 µM in the assay on PEG-3 [1] (setting [3]), 7.91 µM in the assay on PEG-3 [1] (setting [4]) and 12.1 µM at PEG-3 [2].
The corresponding values for `COc1cccc2sc(N(CCCN(C)C)C(=O)C(c3ccccc3)c3ccccc3)nc12` are 18.2 µM, 18.2 µM and 18.2 µM.
The corresponding values for `O=C1NC(=O)N(Cc2ccco2)C(=O)/C1=C/C=C/c1ccco1` are 14.8 µM, 12.6 µM and 13.7 µM.
Taken in the same sequence, the figures for `O=c1[nH]c(=O)n(C2OC(CO)C(O)C2O)cc1F` (centres undefined) were 25.6 µM, 3.07 µM and 14.3 µM.
In the case of `Cc1ccc2sc(N(CCCN(C)C)C(=O)c3ccc(S(=O)(=O)N4CCc5ccccc5C4)cc3)nc2c1C`, the IC50 in the assay with PEG-3 [1] (setting [3]) is 15.6 µM; with PEG-3 [1] (setting [4]) it was 19.2 µM; at PEG-3 [2], 17.4 µM.
The corresponding values for `O=C(Cc1csc(Nc2nc(=S)[nH]c3ccccc23)n1)NCc1ccccc1Cl` are above 100 µM, above 100 µM and > 100 µM (inactive).
With `O=S(=O)(N[C@H]1C[C@@H](NS(=O)(=O)OCC(Cl)(Cl)Cl)C2CCCCC21)OCC(Cl)(Cl)Cl` (some centres undefined), the IC50 in the assay with PEG-3 [1] (setting [3]) was 15.1 µM; with PEG-3 [1] (setting [4]) it was 9.83 µM; at PEG-3 [2] it was 12.5 µM.
Consider `N#Cc1ccc(Cn2cc(C=O)c3ccccc32)cc1`, for which the IC50 in the assay with PEG-3 [1] (setting [3]) is 31.6 µM; with PEG-3 [1] (setting [4]), 24.6 µM. Further, on PEG-3 [2], the IC50 entry was “inactive”.
Taken in the same sequence, the figures for `CN(C)CCNC(=O)/C(=C/c1ccc(-c2ccc(Cl)cc2)o1)NC(=O)c1ccccc1` were 18.1 µM, 9.62 µM and 13.9 µM.
Turning to `Cc1ccc2[nH]c(=O)c(C3C(C#N)=C(N)Oc4c3ccc3cccnc43)cc2c1` (centres undefined), the IC50 amounted to 28.3 µM in the assay on PEG-3 [1] (setting [3]) and 21.7 µM in the assay on PEG-3 [1] (setting [4]). For the same molecule, the IC50 entry at PEG-3 [2] was “inactive”.
Taken in the same sequence, the figures for `COc1cc2ccccc2cc1C(=O)N(CCN(C)C)c1nc2c(OC)ccc(OC)c2s1` were 30.7 µM, 21.2 µM and “inactive”.
As for `COc1ccc(CC(N)c2csc(Nc3cccc(OC)n3)n2)cc1` (centres undefined), the IC50 was 17.6 µM in the assay with PEG-3 [1] (setting [3]), 14.2 µM with PEG-3 [1] (setting [4]) and 15.9 µM on PEG-3 [2].
`O=S(=O)(Nc1cccc2ncccc12)c1cccs1`: the IC50 in the assay on PEG-3 [1] (setting [3]) was 17.5 µM; in the assay on PEG-3 [1] (setting [4]) it was 8.93 µM; on PEG-3 [2], 13.2 µM.
The corresponding values for `COc1ccc(CN(C)C(=O)c2cc(-c3ccccc3)nc3ccc(C)cc23)c(OC)c1OC` are 32.8 µM, 23.7 µM and “inactive”.
For the molecule `Nc1c(C(=O)Nc2cccc(C(=O)O)c2)sc2nc3c(cc12)CCCC3`, the IC50 is 4.36 µM in the assay on PEG-3 [1] (setting [3]), 18 µM in the assay with PEG-3 [1] (setting [4]) and 11.2 µM at PEG-3 [2].
For the molecule `CCOC(=O)c1cnc2c(cnn2C)c1NCCCN(C)C`, the values for the 50% inhibitory concentration (IC50) with PEG-3 [1] (setting [3]) and with PEG-3 [1] (setting [4]) were 18.9 µM and 28.8 µM, respectively. The IC50 result at PEG-3 [2] is “inactive”.
The corresponding values for `CCN1CCN(c2nc(Nc3cc(OC)ccc3OC)nc(Nc3cc(OC)ccc3OC)n2)CC1` are 17 µM, 18.1 µM and 17.5 µM.
Taken in the same sequence, the figures for `CC1(C(=O)NCc2cccc3ccccc23)CCN1C(=O)Cc1ccc(-c2ccccc2)cc1` (centres undefined) were 10.3 µM, above 100 µM and “inactive”.
On to `Cc1ccc(S(=O)(=O)CCSC(=N)N)cc1`, for which the IC50 with PEG-3 [1] (setting [3]) stood at 36.6 µM; in the assay on PEG-3 [1] (setting [4]), 42.7 µM. Further, on PEG-3 [2], the IC50 result was “inactive”.
The corresponding values for `CCCCCCCCNCCS(=O)(=O)NCc1ccc(OC)cc1` are 17.7 µM, 18.3 µM and 18 µM.
For `CN(C)S(=O)(=O)c1cccc(NC(=O)CSc2nc3c(cc2C#N)C(=O)CC(C)(C)C3)c1`, the values for the IC50 in the assay on PEG-3 [1] (setting [3]) and in the assay with PEG-3 [1] (setting [4]) were 21.6 µM and 19.6 µM, respectively. Also, at PEG-3 [2], the IC50 result was “inactive”.
On to `COc1cccc(-c2sc3ccc(OC)cc3c2-c2ccc(OCCN(C)C)cc2)c1`, for which the results for the IC50 in the assay with PEG-3 [1] (setting [3]), in the assay with PEG-3 [1] (setting [4]) and on PEG-3 [2] were 15.7 µM, 15.2 µM and 15.5 µM, respectively.
Consider `Cc1nc(N2CCN(c3ccccc3O)CC2)c2c(-c3ccccc3)csc2n1`, for which the IC50 in the assay with PEG-3 [1] (setting [3]) was found to be 29 µM; in the assay on PEG-3 [1] (setting [4]), 24.6 µM. For the same molecule, on PEG-3 [2], the IC50 result was “inactive”.
Taken in the same sequence, the figures for `COc1ccc(CNC(=O)Nc2nc(C(N)Cc3ccc(F)cc3)cs2)cc1` (centres undefined) were 16.6 µM, 12.5 µM and 14.6 µM.
The corresponding values for `CCCc1nc(SCC(=O)N2CCCc3ccccc32)c2c(=O)n(C)c(=O)n(C)c2n1` are 49 µM, 38.2 µM and “inactive”.
Taken in the same sequence, the figures for `CN(CC(=O)Nc1ccc(Cl)c(C(F)(F)F)c1)C(=O)c1cc(-c2ccncc2)nc2ccccc12` were 16.2 µM, 15.9 µM and 16.1 µM.
As for `N/C(=N\OC(=O)c1ccccc1)C(C(=O)NOC(=O)c1ccccc1)C1CCCCC1` (centres undefined), the IC50 was 24.5 µM with PEG-3 [1] (setting [3]) and above 100 µM in the assay with PEG-3 [1] (setting [4]). At PEG-3 [2], the IC50 entry is “inactive”.
Taken in the same sequence, the figures for `COc1ccc(-c2oc3ccc(-c4cc(OC)c(OC)c(OC)c4)cc3c2C#Cc2ccccn2)cc1` were 2.89 µM, 21.5 µM and 12.2 µM.
As for `O=C(Nc1ccccc1N1CCOCC1)c1cc(-c2ccncc2)nc2ccccc12`, the IC50 in the assay with PEG-3 [1] (setting [3]) stood at 33 µM; in the assay on PEG-3 [1] (setting [4]) it was 78.3 µM. The IC50 result at PEG-3 [2] was “inactive”.
The corresponding values for `CCCCCCCCCCCCCCCC(O)C[N+](C)(C)CCO` (centres undefined) are 17.7 µM, 8.35 µM and 13 µM.
The corresponding values for `c1ccc(CCCNCCCn2cnc3c(OCc4ccccc4)ncnc32)cc1` are 34.7 µM, 19.5 µM and “inactive”.
The corresponding values for `O=C(Nc1cccc(S(=O)(=O)N2CCOCC2)c1)c1ccc2c(=O)n3c(nc2c1)CCCCC3` are 25.3 µM, 43.1 µM and “inactive”.
Turning to `Cc1cc(-n2c(SCC(=O)Nc3ccc(F)c(F)c3)nc3n[nH]c(C)c3c2=N)ccc1Cl`, the IC50 in the assay on PEG-3 [1] (setting [3]) was found to be 41 µM; in the assay with PEG-3 [1] (setting [4]), 30.3 µM. In addition, the IC50 result at PEG-3 [2] is “inactive”.
Taken in the same sequence, the figures for `CN(C)C=NC(=O)c1[nH]c2ccc(Cl)cc2c1-c1ccccc1` were 18 µM, 19.9 µM and 18.9 µM.
Taken in the same sequence, the figures for `O=S(=O)(Nc1cccc2cccnc12)c1ccccc1` were above 100 µM, 7.43 µM and “inactive”.
Taken in the same sequence, the figures for `CC(C)(C)OC(=O)CC(S(=O)(=O)c1ccccc1)S(=O)(=O)c1ccccc1` were 21 µM, 7.58 µM and 14.3 µM.
As to `CCCN(CCC)CCCNC(=S)Nc1ccc2nc(N3CCCC3)cc(C)c2c1`, the IC50 with PEG-3 [1] (setting [3]) stood at 27.5 µM; with PEG-3 [1] (setting [4]), 19.1 µM. The IC50 entry on PEG-3 [2] was “inactive”.
Regarding `Cc1ccc(C(=O)NCCc2cccs2)cc1`, the IC50 in the assay with PEG-3 [1] (setting [3]) was 3.98 µM; in the assay with PEG-3 [1] (setting [4]) it was 20 µM; at PEG-3 [2], 12 µM.
`Oc1cccc(C(Nc2nccs2)c2ccc3cccnc3c2O)c1` (centres undefined): the IC50 with PEG-3 [1] (setting [3]) is above 100 µM; in the assay with PEG-3 [1] (setting [4]), 31.1 µM. Also, the IC50 entry at PEG-3 [2] was “inactive”.
Taken in the same sequence, the figures for `CC(=O)NC(c1ccccc1)c1cc(Cl)c2cccnc2c1O` (centres undefined) were 6.33 µM, 12.7 µM and 9.5 µM.
Taken in the same sequence, the figures for `COc1cc(/C=C/c2ccc3cccc(O)c3n2)c(Br)cc1O` were 63.2 µM, 42.7 µM and “inactive”.
The corresponding values for `COc1cccc(NC(=O)CN(C)C(=O)c2cc(-c3ccc(F)cc3)nc3ccccc23)c1` are 25.8 µM, 44.6 µM and “inactive”.
In the case of `Cc1cc(C)c2sc(N(CCCN(C)C)C(=O)c3ccc(S(=O)(=O)N(C)C4CCCCC4)cc3)nc2c1`, the IC50 in the assay on PEG-3 [1] (setting [3]) was 18.9 µM; in the assay with PEG-3 [1] (setting [4]), 13 µM; on PEG-3 [2] it was 16 µM.
Taken in the same sequence, the figures for `CC(C)(C)n1nnnc1C(CCc1ccccc1)N1CCC(n2c(=O)[nH]c3ccccc32)CC1` (centres undefined) were 18.3 µM, 24.7 µM and “inactive”.
For the molecule `Cc1ccc2[nH]c3c(c2c1)CCCC3NC(=O)CCl` (centres undefined), the values for the IC50 in the assay on PEG-3 [1] (setting [3]) and with PEG-3 [1] (setting [4]) were 23.3 µM and 49.8 µM, respectively. Also, at PEG-3 [2], the IC50 entry is “inactive”.
For `O=[N+]([O-])c1cc(F)c(N2CCCCCC2)cc1N1CCNCC1`, the results for the IC50 in the assay on PEG-3 [1] (setting [3]), in the assay on PEG-3 [1] (setting [4]) and on PEG-3 [2] were 18.9 µM, 12.5 µM and 15.7 µM, respectively.
As for `CCN(Cc1ccccc1)S(=O)(=O)c1ccc(C(=O)N(CCCN(C)C)c2nc3cc4c(cc3s2)OCCO4)cc1`, the IC50 in the assay on PEG-3 [1] (setting [3]) is 33.3 µM; with PEG-3 [1] (setting [4]), above 100 µM. In addition, the IC50 entry on PEG-3 [2] was “inactive”.
In the case of `CC(=O)NC(c1ccc(C)cc1)c1cc(Cl)c2cccnc2c1O` (centres undefined), the IC50 in the assay on PEG-3 [1] (setting [3]) is 3.25 µM; with PEG-3 [1] (setting [4]) it was above 100 µM. The IC50 entry at PEG-3 [2] is “inactive”.
Turning to `COC(=O)c1ccc(Nc2cc(C)nc3ccc(C)cc23)cc1`, the 50% inhibitory concentration (IC50) was 17.9 µM in the assay with PEG-3 [1] (setting [3]), 9.4 µM in the assay on PEG-3 [1] (setting [4]) and 13.6 µM on PEG-3 [2].
As to `COC(=O)c1c(NC(=O)c2ccc([N+](=O)[O-])o2)sc2c1CCN(C(C)C)C2`, the IC50 with PEG-3 [1] (setting [3]) is 19.2 µM; in the assay with PEG-3 [1] (setting [4]), 11.8 µM; at PEG-3 [2], 15.5 µM.
The corresponding values for `COc1ccccc1NC(=S)NC1CCCCCCCCCCC1` are 31.2 µM, 42.3 µM and “inactive”.

As a reminder, the IC50 is the midpoint of a concentration-inhibition curve.

For the origin of these results see PubChem BioAssay AID624167 (Sanford-Burnham Center for Chemical Genomics, 2012).
